Results reported in publication doi:10.1101/2022.05.03.490502v1 (biorxiv, 2022).

Legend:
LAT1 (hLAT1; LAT1/4F2hc) [1] = target: T1, LAT1 (hLAT1; LAT1/4F2hc) (Homo sapiens, UniProt Q01650); test: cis-inhibition of [3H]-gabapentin uptake, TREx HEK-hLAT1 cells; type: cell-based
LAT1 (hLAT1; LAT1/4F2hc) [2] = target: T1, LAT1 (hLAT1; LAT1/4F2hc); test: cell-based; set-up: species or system TREx HEK-hLAT1

T1 sequence (Q01650 whole entry): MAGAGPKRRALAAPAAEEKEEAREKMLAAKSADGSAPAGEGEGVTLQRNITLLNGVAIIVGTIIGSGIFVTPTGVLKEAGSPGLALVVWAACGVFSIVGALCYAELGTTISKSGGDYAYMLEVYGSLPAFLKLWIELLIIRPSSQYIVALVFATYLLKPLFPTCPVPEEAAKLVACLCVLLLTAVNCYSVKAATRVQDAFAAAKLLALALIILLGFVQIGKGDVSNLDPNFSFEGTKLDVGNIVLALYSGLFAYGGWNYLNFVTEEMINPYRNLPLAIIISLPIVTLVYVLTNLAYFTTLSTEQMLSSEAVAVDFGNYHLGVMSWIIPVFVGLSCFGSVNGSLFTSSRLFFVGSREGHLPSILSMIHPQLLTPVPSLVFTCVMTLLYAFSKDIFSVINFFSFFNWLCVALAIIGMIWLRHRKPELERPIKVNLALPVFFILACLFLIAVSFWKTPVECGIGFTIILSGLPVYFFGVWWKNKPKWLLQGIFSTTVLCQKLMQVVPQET
T1 sequence (P08195 103-630 partner): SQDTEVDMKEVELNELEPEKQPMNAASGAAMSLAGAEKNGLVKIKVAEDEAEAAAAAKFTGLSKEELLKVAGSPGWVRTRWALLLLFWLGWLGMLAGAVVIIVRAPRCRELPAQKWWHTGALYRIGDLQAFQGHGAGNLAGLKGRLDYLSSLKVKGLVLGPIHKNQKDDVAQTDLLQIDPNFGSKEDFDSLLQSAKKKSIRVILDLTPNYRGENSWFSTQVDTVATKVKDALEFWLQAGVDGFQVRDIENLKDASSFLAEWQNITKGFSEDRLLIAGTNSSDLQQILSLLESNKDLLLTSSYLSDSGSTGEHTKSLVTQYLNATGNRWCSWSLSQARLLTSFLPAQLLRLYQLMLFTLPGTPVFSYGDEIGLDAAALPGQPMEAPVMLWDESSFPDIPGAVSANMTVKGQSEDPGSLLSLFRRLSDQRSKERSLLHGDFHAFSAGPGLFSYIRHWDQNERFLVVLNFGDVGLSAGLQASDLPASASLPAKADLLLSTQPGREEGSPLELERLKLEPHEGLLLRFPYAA

Row | Compound | IC50 (LAT1 (hLAT1; LAT1/4F2hc) [1]) | IC50 (LAT1 (hLAT1; LAT1/4F2hc) [2])
1 | NC(Cc1ccc(O)c(OCc2ccccc2)c1)C(=O)O (centres unmarked) [EN2] | 63.3 µM | 
2 | N[C@@H](Cc1ccc(/N=N/c2ccccc2)cc1)C(=O)O [EN14] |  | 16 µM
3 | N[C@@H](CNC(=O)OCC1c2ccccc2-c2ccccc21)C(=O)O [KH1] | 44.4 µM | 
4 | N[C@@H](Cc1c[nH]c2ccc(OCc3ccccc3)cc12)C(=O)O [KH13] | 11.8 µM | 
5 | N[C@@H](Cc1ccccc1)C(=O)O [L-Phe] |  | 91.8 µM
